Assay results published in US20060116390A1, “Hepatitis c virus inhibitors” (priority 2003, published 2006).
Like-named read-outs stand apart in the source and are kept apart here.

System: HCV proteins in Rep5.1 cells (replicon cell line)
Assay: Inhibitory activity of HCV: cell-based ELISA in replicon cell line Rep5.1 (decrease of HCV proteins)
Set-up: species or system hepatitis C virus
How it was run: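 Rep5.1 replicon cells (5000/well, DMEM-10 with 500 μg/ml G418) were given serially diluted drug 4 h after seeding. After 72 h, cells were fixed in methanol/acetone and HCV proteins detected by cell-based ELISA using replicon-specific patient plasma antibodies. IC50 is the concentration giving 50% protein decrease versus the no-drug control.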

[1] = Hepatitis C virus, 72 h, Rep5.1 cells, 72 hours with drug, concentration at which 50% of HCV proteins was decreased, Table 2, read-out: IC50
[2] = Hepatitis C virus, 72 h, Rep5.1 cells, 72 hours with drug, decrease of HCV proteins measured by HCV antibody, Table 1, read-out: Level (IC50 values classified)
[3] = Rep5.1 cells, 72 hours with drug, concentration at which 50% of HCV proteins was decreased, Table 2, read-out: IC50

Row | SMILES | IC50 [1] [µM] | IC50 [2] [µM] | IC50 (Hepatitis C virus, 72 h) [µM] | IC50 (Hepatitis C virus, 72 h, read-out: Level (IC50 values classified)) [µM] | IC50 [3] [µM]
1 | CC1=C(C(=O)OCCc2c(F)cccc2Cl)C(CF)NC(=S)N1 (stereo not shown) [87′, 4-fluoromethyl-6-methyl-2-thioxo-1,2,3,4-tetrahydro-pyrimidine-5-carboxylic acid 2-(2-chloro-6-fluoro-phenyl)-ethyl ester] | < 0.4 | < 1 |  |  | 
2 | CC(C)=CCOC(=O)C1=C(C)NC(=S)NC1 [Compound 53, 6-methyl-2-thioxo-1,2,3,4-tetrahydro-pyrimidine-5-carboxylic acid 3-methyl-but-2-enyl ester] |  |  | 6.6 | 1 to 10 | 
3 | CC1=C(C(=O)OCc2ccc(Cl)cc2Cl)CNC(=S)N1 [Compound 41, 6-methyl-2-thioxo-1,2,3,4-tetrahydro-pyrimidine-5-carboxylic acid 2,4-dichloro-benzyl ester] | < 0.4 | < 1 |  |  | 
4 | CC1=C(C(=O)OCC2CC2)CNC(=S)N1 [Compound 46, 6-methyl-2-thioxo-1,2,3,4-tetrahydro-pyrimidine-5-carboxylic acid cyclopropylmethyl ester] | 30 | 10 to 20 |  |  | 
5 | CC1=C(C(=O)OCCc2ccc(N3CC=CC3)c([N+](=O)[O-])c2)C(CO)NC(=S)N1 (stereo not shown) [101″, 4-Hydroxymethyl-6-methyl-2-thioxo-1,2,3,4-tetrahydro-pyrimidine-5-carboxylic acid 2-[4-(2,5-dihydro-pyrrol-1-yl)-3-nitro-phenyl]-ethyl ester] | 1.2 | 1 to 10 |  |  | 
6 | CC1=C(C(=O)OCc2ccc(-c3ccccc3)cc2)C(CO)NC(=S)N1 (stereo not shown) [28″, 4-hydroxymethyl-6-methyl-2-thioxo-1,2,3,4-tetrahydro-pyrimidine-5-carboxylic acid biphenyl-4-ylmethyl ester] | 1 | < 1 |  |  | 
7 | CCCOCC#CCOC(=O)C1=C(C)NC(=S)NC1 [Compound 237, 6-methyl-2-thioxo-1,2,3,4-tetrahydro-pyrimidine-5-carboxylic acid 4-propoxy-but-2-inyl ester] |  |  |  |  | 1.7
8 | CC1=C(C(=O)OCc2ccc(F)cc2F)CNC(=S)N1 [Compound 69, 6-methyl-2-thioxo-1,2,3,4-tetrahydro-pyrimidine-5-carboxylic acid 2,4-difluoro-benzyl ester] | 1.2 | 1 to 10 |  |  | 
9 | CCc1ccc(CCOC(=O)C2=C(C)NC(=S)NC2CF)o1 (stereo not shown) [23′, 4-fluoromethyl-6-methyl-2-thioxo-1,2,3,4-tetrahydro-pyrimidine-5-carboxylic acid 2-(5-ethyl-furan-2-yl)-ethyl ester] | 0.7 | < 1 |  |  | 
10 | CC1=C(C(=O)OCC(F)(F)c2ccsc2)CNC(=S)N1 [71′, 6-methyl-2-thioxo-1,2,3,4-tetrahydro-pyrimidine-5-carboxylic acid 2,2-difluoro-2-thiophen-3-yl-ethyl ester] | 0.6 | < 1 |  |  | 
11 | CCCCc1ccc(COC(=O)C2=C(C)NC(=S)NC2)cc1 [Compound 51, 6-methyl-2-thioxo-1,2,3,4-tetrahydro-pyrimidine-5-carboxylic acid 4-butyl-benzyl ester] | < 0.5 | < 1 |  |  | 
12 | CC1=C(C(=O)OCc2cc(C)on2)CNC(=S)N1 [47′, 6-methyl-2-thioxo-1,2,3,4-tetrahydro-pyrimidine-5-carboxylic acid 5-methyl-isoxazol-3-ylmethyl ester] | 100 | > 20 |  |  | 
13 | CC1=C(C(=O)OCc2cc3c(cc2[N+](=O)[O-])OCO3)CNC(=S)N1 [Compound 140, 6-methyl-2-thioxo-1,2,3,4-tetrahydro-pyrimidine-5-carboxylic acid 6-nitro-benzo[1,3]dioxol-5-ylmethyl ester] | 13 | 10 to 20 |  |  | 
14 | CC1=C(C(=O)OCc2sccc2-n2cccc2)CNC(=S)N1 [Compound 220, 6-methyl-2-thioxo-1,2,3,4-tetrahydro-pyrimidine-5-carboxylic acid 3-pyrrol-1-yl-thiophen-2-ylmethyl ester] | 0.8 | < 1 |  |  | 
15 | COCC#CCOC(=O)C1=C(C)NC(=S)NC1 [Compound 215, 6-methyl-2-thioxo-1,2,3,4-tetrahydro-pyrimidine-5-carboxylic acid 4-methoxy-but-2-inyl ester] |  |  |  |  | 11
16 | CC1=C(C(=O)OCc2cccc(SC(F)(F)F)c2)CNC(=S)N1 [Compound 164, 6-methyl-2-thioxo-1,2,3,4-tetrahydro-pyrimidine-5-carboxylic acid 3-trifluoromethylsulfanyl-benzyl ester] | < 0.4 | < 1 |  |  | 
17 | O=C(O)CCCC1=C(C(=O)OCc2ccccc2)CNC(=S)N1 [Compound 170, 6-(3-carboxy-propyl)-2-thioxo-1,2,3,4-tetrahydro-pyrimidine-5-carboxylic acid benzyl ester] | 90 | > 20 |  |  | 

Row | SMILES | IC50 [1] [µM] | IC50 [2] [µM] | IC50 (Hepatitis C virus, 72 h) [µM] | IC50 (Hepatitis C virus, 72 h, read-out: Level (IC50 values classified)) [µM] | IC50 [3] [µM]
18 | CC(=O)OCC1NC(=S)NC(C)=C1C(=O)OCCCCc1ccsc1 (stereo not shown) [26″, 4-acetoxymethyl-6-methyl-2-thioxo-1,2,3,4-tetrahydro-pyrimidine-5-carboxylic acid 4-thiophen-3-yl-butyl ester] | 2 | 1 to 10 |  |  | 
19 | CC(=O)Oc1ccccc1CCC(=O)OCC1NC(=S)NC(C)=C1C(=O)OCCc1cccc([N+](=O)[O-])c1 (stereo not shown) [81″, 4-[3-(2-acetoxy-phenyl)-propionyloxymethyl]-6-methyl-2-thioxo-1,2,3,4-tetrahydro-pyrimidine-5-carboxylic acid 2-(3-nitro-phenyl)-ethyl ester] | 6.5 | 1 to 10 |  |  | 
20 | O=C(OCc1ccccc1)C1=C(Cc2ccccc2)NC(=S)NC1 [Compound 18, 6-benzyl-2-thioxo-1,2,3,4-tetrahydro-pyrimidine-5-carboxylic acid benzyl ester] | 5 | 1 to 10 |  |  | 
21 | O=C(OCCc1ccsc1)C1=CNC(=S)NC1CF (stereo not shown) [Compound 271, 4-fluoromethyl-2-thioxo-1,2,3,4-tetrahydro-pyrimidine-5-carboxylic acid 2-thiophen-3-yl-ethyl ester] | 9 | 1 to 10 |  |  | 
22 | C=CCOC(=O)C1=C(C)NC(=S)NC1 [Compound 16, 6-methyl-2-thioxo-1,2,3,4-tetrahydro-pyrimidine-5-carboxylic acid allyl ester] | 74 | > 20 |  |  | 
23 | COCCN(C)c1ccc(CCOC(=O)C2=C(C)NC(=S)NC2)cc1 [Compound 209, 6-methyl-2-thioxo-1,2,3,4-tetrahydro-pyrimidine-5-carboxylic acid 2-{4-[(2-methoxy-ethyl)-methyl-amino]-phenyl}-ethyl ester] | < 0.4 | < 1 |  |  | 
24 | COc1ccccc1COC(=O)C1=C(C)NC(=S)NC1 [Compound 65, 6-methyl-2-thioxo-1,2,3,4-tetrahydro-pyrimidine-5-carboxylic acid 2-methoxy-benzyl ester] | 1 | < 1 |  |  | 
25 | CC1=C(C(=O)OCc2ccc(F)cc2)CNC(=S)N1 [Compound 61, 6-methyl-2-thioxo-1,2,3,4-tetrahydro-pyrimidine-5-carboxylic acid 4-fluoro-benzyl ester] | 0.8 | < 1 |  |  | 
26 | CC1=C(C(=O)OCc2ccc(F)cc2Cl)CNC(=S)N1 [Compound 70, 6-methyl-2-thioxo-1,2,3,4-tetrahydro-pyrimidine-5-carboxylic acid 2-chloro-4-fluoro-benzyl ester] | < 0.5 | < 1 |  |  | 
27 | CC1=C(C(=O)OCCc2cccc(Cl)c2)CNC(=S)N1 [Compound 117, 6-methyl-2-thioxo-1,2,3,4-tetrahydro-pyrimidine-5-carboxylic acid 2-(3-chloro-phenyl)-ethyl ester] | 0.4 | < 1 |  |  | 
28 | C#CC(C)OCC#CCOC(=O)C1=C(C)NC(=S)NC1 (stereo not shown) [Compound 246, 6-methyl-2-thioxo-1,2,3,4-tetrahydro-pyrimidine-5-carboxylic acid 4-(1-methyl-prop-2-inyloxy)-but-2-inyl ester] |  |  |  |  | 68
29 | C#CCCCOC(=O)C1=C(C)NC(=S)NC1 [Compound 130, 6-methyl-2-thioxo-1,2,3,4-tetrahydro-pyrimidine-5-carboxylic acid pent-4-inyl ester] |  |  |  |  | 35
30 | CSc1ccc(CCOC(=O)C2=C(C)NC(=S)NC2CO)cc1 (stereo not shown) [45″, 4-hydroxymethyl-6-methyl-2-thioxo-1,2,3,4-tetrahydro-pyrimidine-5-carboxylic acid 2-(4-methylsulfanyl-phenyl)-ethyl ester] | 2.7 | 1 to 10 |  |  | 
31 | CSCCCOC(=O)C1=C(C)NC(=S)NC1CF (stereo not shown) [63′, 4-fluoromethyl-6-methyl-2-thioxo-1,2,3,4-tetrahydro-pyrimidine-5-carboxylic acid 3-methylsulfanyl-propyl ester] | > 100 | > 20 |  |  | 
32 | CC1=C(C(=O)OCCc2ccc(F)cc2)CNC(=S)N1 [Compound 259, 6-methyl-2-thioxo-1,2,3,4-tetrahydro-pyrimidine-5-carboxylic acid 2-(4-fluoro-phenyl)-ethyl ester] | < 0.4 | < 1 |  |  | 
33 | CC1=C(C(=O)OC(C)Cc2ccsc2Br)C(CO)NC(=S)N1 (stereo not shown) [7″, 4-hydroxymethyl-6-methyl-2-thioxo-1,2,3,4-tetrahydro-pyrimidine-5-carboxylic acid 2-(2-bromo-thiophen-3-yl)-1-methyl-ethyl ester] | 7 | 1 to 10 |  |  | 
34 | CC1=C(C(=O)OCCCc2ccco2)C(CF)NC(=S)N1 (stereo not shown) [Compound 270, 4-fluoromethyl-6-methyl-2-thioxo-1,2,3,4-tetrahydro-pyrimidine-5-carboxylic acid 3-furan-2-yl-propyl ester] | 5 | 1 to 10 |  |  | 
